We go through seven molecules from ChEMBL document CHEMBL1122762, “(+/-)-3-(4-Amino-1H-pyrrolo[2,3-d]pyrimidin-1-yl)-5-(hydroxymethyl)- (1 alpha,2 alpha,3 beta,5 beta)-1,2-cyclopentanediol, the carbocyclic analogue of tubercidin” (J Med Chem, 1984).

Experiment [1] has as its system HEp-2. Nature of the experiment: Compound was evaluated for cytotoxicity against H.Ep.-2 cells, and concentration required to inhibit the growth of treated cells to 50% of untreated control. Format: functional, cell-based. As to conditions: Homo sapiens.
For experiment [2], the system named is L1210 (1565). Nature of the experiment: (§1) Compound was evaluated for cytotoxicity against L-1210 (AK-) cells, and concentration required to inhibit the growth of treated cells to 50% of untreated control. Format: functional, cell-based. As to conditions: Mus musculus.
Experiment [3] deals with L1210 (1565). Nature of the experiment: Compound was evaluated for cytotoxicity against L-1210 cells, and concentration required to inhibit the growth of treated cells to 50% of untreated control. Conditions: Mus musculus. Format: functional, cell-based.
The test system of experiment [4] is S-adenosyl-L-homocysteinase (Mus musculus). Nature of the experiment: Inhibition of S-adenosyl-L-homocysteinase from L-1210 cells.
Experiment [5] has as its system HEp-2. Nature of the experiment: Compound was evaluated for cytotoxicity against H.Ep.-2 cells and concentration required to inhibit the growth of treated cells to 50% of untreated control was reported. Type of experiment: functional, cell-based. Conditions: Homo sapiens.
Experiment [6] concerns L1210 (1565). Described as §1. Format: functional, cell-based. As to conditions: Mus musculus. This is another data set of the same source.
For experiment [7], the system named is HEp-2. As to the kind of experiment: Compound was evaluated for cytotoxicity against H.Ep.-2 (AK-) cells and concentration required to inhibit the growth of treated cells to 50% of untreated control. Type of experiment: functional, cell-based. Conditions: Homo sapiens.

By IC50 is commonly meant the concentration at which inhibition is half-maximal. Lower therefore signals greater potency. As usually defined, the Ki is the equilibrium dissociation constant of an inhibitor or competing ligand from its target. Higher therefore signals weaker binding. For the molecule `Nc1ncnc2c1ccn2[C@@H]1C[C@H](CO)[C@H](O)C1O` (stereo not given in full), the IC50 was 1.4 µM with HEp-2 [1], greater than 40 µM with L1210 (1565) [2] and 4 µM with L1210 (1565) [3]. This molecule also showed a Ki in experiment [4] of 44 µM.
With `Nc1nccc2c1ncn2[C@@H]1O[C@H](CO)[C@@H](O)[C@H]1O`, in the experiment with HEp-2 [1], half-maximal inhibition (IC50) required 20 µM.
For the molecule `Nc1[nH]ccc2ncnc1-2`, the concentration for half-maximal inhibition (IC50) in the experiment on HEp-2 [5] amounted to 7 µM.
Molecule `Nc1ncnc2[nH]ccc12` displayed an IC50 in the experiment with HEp-2 [1] greater than 70 µM.
With `Nc1nccc2c1ncn2[C@@H]1C[C@H](CO)[C@H](O)C1O` (stereo not given in full), the IC50 with HEp-2 [1] was 0.6 µM; in the experiment on L1210 (1565) [2] it was 1 µM; in the experiment with L1210 (1565) [6], 1 µM; in the experiment with L1210 (1565) [3], 4 µM.
In the case of `Nc1ncnc2c1ncn2[C@@H]1O[C@H](CO)[C@@H](O)[C@H]1O` [ADENOSINE], the figures for the IC50 with HEp-2 [7] and with HEp-2 [1] were 20 µM and 0.7 µM, respectively.
The matching figures for `Nc1ncnc2c1ccn2[C@@H]1O[C@H](CO)[C@@H](O)[C@H]1O` [TUBERCIDIN]: greater than 3 µM and 0.002 µM.
